Consider 35 compounds from patent publication US9193731B2, “Antimicrobial compounds and methods of making and using the same” (Melinta Therapeutics, Inc., priority 2009, dated 2015).

The term MIC denotes the smallest concentration in the dilution series that meets the test's criterion for growth inhibition.

This assay relates to Escherichia coli strain ATCC25922. Kind of assay: standard microdilution assay to determine minimum inhibitory concentrations (MICs). In kind it is cell-based. The settings on record: for E. coli ATCC25922 MIC: Escherichia coli strain ATCC25922, microdilution; for MIC: Escherichia coli, ATCC25922, Escherichia coli strain ATCC25922, microdilution, read-out: E. coli ATCC25922 MIC. Put shortly: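 E. coli strain ATCC25922 tested per CLSI microdilution methodology (about 100 microliters per well) to find minimum inhibitory concentrations. Activity scored categorically at a 16 micrograms/ml threshold.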
(In general: Dilution methods test growth across graded concentrations, often in twofold steps.)

On to `N=C(N)NCCNCC(O)Cn1cc2cc(-c3ccc(S(=O)(=O)NC4CCNCC4)cc3)[nH]c2nc1=O` (centres unmarked) [Compound 1108], for which the “E. coli ATCC25922 MIC” value is “+ (a “+” indicates that the compound has an MIC value of 16 micrograms/ml or less)”.

In the case of `N=C(N)NCCCNCc1ccc(-n2cc3cc(-c4cccc(CCN5CCNCC5)c4)[nH]c3nc2=O)cc1` [Compound 1199], the MIC was below 16 µg/mL.

For `N=C(N)NCCCNCc1ccc(-c2cn3cc(-c4ccc(C(=O)N5CCN(c6ncccn6)CC5)cc4)[nH]c3nc2=O)cc1` [Compound 721], the MIC was above 16 µg/mL.

As for `N=C(N)NCCCNCc1ccc(-n2cc3cc(-c4cc(CCCCN)cc(OC(F)(F)F)c4)[nH]c3nc2=O)cc1` [Compound 2009a], the minimum inhibitory concentration (MIC) was below 16 µg/mL.

Take `CC(CN)CN1CCC(c2cc3cn(-c4ccc(CNCCCNC(=N)N)cc4)c(=O)nc3[nH]2)C1` (centres unmarked) [Compound 2040a]: the “E. coli ATCC25922 MIC” value is given as “+ (a “+” indicates that the compound has an MIC value of 16 micrograms/ml or less)”.

Consider `CSCc1cc(CCCCN)cc(-c2cc3cn(-c4ccc(CNCCCNC(=N)N)cc4)c(=O)nc3[nH]2)c1` [Compound 2083a], for which the “E. coli ATCC25922 MIC” value is “+ (a “+” indicates that the compound has an MIC value of 16 micrograms/ml or less)”.

As to `C=Cc1cc2cn(-c3ccc(C(=O)NCCCNC(=N)N)cc3)c(=O)nc2[nH]1` [Compound 1112], the minimal inhibitory concentration (MIC) is above 16 µg/mL.

On to `NCCCN(CCCN)Cc1ccc(-n2cc3cc(-c4ccc(C(=O)NC5CCNCC5)cc4)[nH]c3nc2=O)cc1` [Compound 197], for which the MIC was below 16 µg/mL.

For `N=C(N)NCCCNCc1ccc(-n2cc3cc(-c4cc(CCO)cc(CCCCN)c4)[nH]c3nc2=O)cc1` [Compound 2053a], the “E. coli ATCC25922 MIC” value is recorded as “+ (a “+” indicates that the compound has an MIC value of 16 micrograms/ml or less)”.

On to `NCCCNCc1ccc(-n2cc3cc(CN4CCS(=O)(=O)CC4)[nH]c3nc2=O)cc1` [Compound 613], for which the MIC is above 16 µg/mL.

On to `N#CCCCOc1cccc(-c2cc3cn(-c4ccc(CN)cc4)c(=O)nc3[nH]2)c1` [Compound 1151], for which the MIC is above 16 µg/mL.

On to `NC(=O)c1ccc(-n2cc3cc(-c4ccc(S(=O)(=O)N(Cc5cc(OC(F)(F)F)ccc5F)C5CCNCC5)cc4)[nH]c3nc2=O)cc1` [Compound 1115], for which the “E. coli ATCC25922 MIC” value is listed as “− (a “−” indicates that the compound has an MIC value greater than 16 micrograms/ml)”.

For the compound `NC(=O)CCCN(C1CCNCC1)S(=O)(=O)c1ccc(-c2cc3cn(-c4ccc(CNC(=O)CCN=C(N)N)cc4)c(=O)nc3[nH]2)cc1` [Compound 1194], the “E. coli ATCC25922 MIC” value is given as “− (a “−” indicates that the compound has an MIC value greater than 16 micrograms/ml)”.

On to `N=C(N)NCCCNCc1ccc(-n2cc3cc(-c4ccc(S(=O)(=O)N(Cc5ccncc5)C5CCNCC5)cc4)[nH]c3nc2=O)cc1` [Compound 757], for which the MIC is below 16 µg/mL.

Consider `N=C(N)NCCCNCc1ccc(-n2cc3cc(CCS(=O)(=O)N(Cc4ccc(Cl)c(Cl)c4)C4CCNCC4)[nH]c3nc2=O)cc1` [Compound 913], for which the “E. coli ATCC25922 MIC” value is listed as “+ (a “+” indicates that the compound has an MIC value of 16 micrograms/ml or less)”.

Turning to `CC(C)NC(=O)CCc1cc2cn(-c3ccc(CNCCCN)cc3)c(=O)nc2[nH]1` [Compound 293], the minimum inhibitory concentration (MIC) is above 16 µg/mL.

On to `N=C(N)NCCCNC(=O)c1ccc(-n2cc3cc(-c4ccc(C[C@H](N)CO)cc4)[nH]c3nc2=O)cc1` [Compound 1164], for which the minimum inhibitory concentration (MIC) was below 16 µg/mL.

For the compound `NCc1ccc(-n2cc3cc(-c4ccc(S(=O)(=O)N(CC5COc6ccccc6O5)C5CCNCC5)cc4)[nH]c3nc2=O)cc1` (centres unmarked) [Compound 985], the “E. coli ATCC25922 MIC” value was “− (a “−” indicates that the compound has an MIC value greater than 16 micrograms/ml)”.

For the compound `N=C(N)NCCCNC(=O)c1ccc(-n2cc3cc(CCNC4CNC4)[nH]c3nc2=O)cc1` [Compound 1408], the “E. coli ATCC25922 MIC” value is given as “− (a “−” indicates that the compound has an MIC value greater than 16 micrograms/ml)”.

As to `N=C(N)NCCCNCc1ccc(-n2cc3cc(-c4cc(C(=O)N5CCS(=O)(=O)CC5)cc(N5CCNCC5)c4)[nH]c3nc2=O)cc1` [Compound 875], the “E. coli ATCC25922 MIC” value is given as “+ (a “+” indicates that the compound has an MIC value of 16 micrograms/ml or less)”.

Turning to `N=C(N)NCCCNCc1ccc(-n2cc3cc(-c4cc(F)cc(CCCCN)c4)[nH]c3nc2=O)cc1` [Compound 2085a], the “E. coli ATCC25922 MIC” value is listed as “+ (a “+” indicates that the compound has an MIC value of 16 micrograms/ml or less)”.

Take `NCc1ccc(-n2cc3cc(-c4ccc(S(=O)(=O)N(CCCn5cccn5)C5CCNCC5)cc4)[nH]c3nc2=O)cc1` [Compound 1035]: the MIC was above 16 µg/mL.

For the compound `NCCCNCc1ccc(-n2cc3cc(CCN[C@H]4CCCNC4)[nH]c3nc2=O)cc1` [Compound 816], the minimal inhibitory concentration (MIC) is below 16 µg/mL.

As for `N=C(N)NCCCNCC(O)Cn1cc2cc(-c3ccc(S(=O)(=O)NC4CCNCC4)cc3)[nH]c2nc1=O` (centres unmarked) [Compound 977], the “E. coli ATCC25922 MIC” value is listed as “+ (a “+” indicates that the compound has an MIC value of 16 micrograms/ml or less)”.

As to `N=C(N)NCCCNCc1ccc(-n2cc3cc(-c4ccc(S(=O)(=O)NC5CCOCC5)cc4)[nH]c3nc2=O)cc1` [Compound 864], the “E. coli ATCC25922 MIC” value is “− (a “−” indicates that the compound has an MIC value greater than 16 micrograms/ml)”.

Consider `COC(CN)COc1cccc(-c2cc3cn(-c4ccc(CNCCCNC(=N)N)cc4)c(=O)nc3[nH]2)c1` (centres unmarked) [Compound 1400], for which the “E. coli ATCC25922 MIC” value is “+ (a “+” indicates that the compound has an MIC value of 16 micrograms/ml or less)”.

Consider `Nc1nccc(CCCNCc2ccc(-n3cc4cc(-c5ccc(S(=O)(=O)NC6CCNCC6)cc5)[nH]c4nc3=O)cc2)n1` [Compound 1132], for which the “E. coli ATCC25922 MIC” value is “− (a “−” indicates that the compound has an MIC value greater than 16 micrograms/ml)”.

For the compound `NCc1ccc(-n2cc3cc(-c4ccc(S(=O)(=O)N(CCCc5ccc(F)cc5)C5CCNCC5)cc4)[nH]c3nc2=O)cc1` [Compound 1053], the minimal inhibitory concentration (MIC) is above 16 µg/mL.

As to `NCCCN(CCCN)Cc1ccc(-n2cc3cc(-c4ccc(S(=O)(=O)NC5CN6CCC5CC6)cc4)[nH]c3nc2=O)cc1` (centres unmarked) [Compound 201], the MIC was below 16 µg/mL.

As for `N=C(N)NCCCNCc1ccc(-n2cc3cc(-c4ccc(C(NC5CN(C(=N)N)C5)C(F)F)cc4)[nH]c3nc2=O)cc1` (centres unmarked) [Compound 2006a], the “E. coli ATCC25922 MIC” value is listed as “+ (a “+” indicates that the compound has an MIC value of 16 micrograms/ml or less)”.

As to `CNCc1ccc(-n2cc3cc(-c4ccc(S(=O)(=O)N(CC5CC5)C5CCNCC5)cc4)[nH]c3nc2=O)cc1` [Compound 936], the “E. coli ATCC25922 MIC” value is recorded as “− (a “−” indicates that the compound has an MIC value greater than 16 micrograms/ml)”.

As to `CC(C)(C)NCC(=O)Nc1ccc(-c2cc3cn(-c4ccc(CNCCCN=C(N)N)cc4)c(=O)nc3[nH]2)cc1` [Compound 1218], the “E. coli ATCC25922 MIC” value is given as “+ (a “+” indicates that the compound has an MIC value of 16 micrograms/ml or less)”.

On to `CN(Cc1cccnc1)C(=O)c1cc(-c2cc3cn(-c4ccc(CNCCCNC(=N)N)cc4)c(=O)nc3[nH]2)cc(N2CCNCC2)c1` [Compound 951], for which the “E. coli ATCC25922 MIC” value is “− (a “−” indicates that the compound has an MIC value greater than 16 micrograms/ml)”.

Turning to `NCCCNCc1ccc(-c2cn3cc(-c4ccc(C(=O)N5CCNCC5)cc4)[nH]c3nc2=O)cc1` [Compound 682, 6-{4-[(3-Amino-propylamino)-methyl]-phenyl}-2-[4-(piperazine-1-carbonyl)-phenyl]-1H-imidazo[1,2-a]pyrimidin-7-one], the minimum inhibitory concentration (MIC) is below 16 µg/mL.

As to `NCCCN(CCCN)Cc1ccc(-n2cc3cc(-c4ccc(F)cc4)[nH]c3nc2=O)cc1` [Compound 180], the MIC is above 16 µg/mL.
